{
  "source": "patent US20060122181A1",
  "about": "“Heteroaromatic pentacyclic compound and medicinal use thereof” (Japan Tobacco Inc., priority 2003, published 2006)",
  "key": {"male SD rats": {"tested_on": "male SD rats", "experiment": "Effect of concomitant use with insulin on hypoglycemic activity", "type": "in vivo", "conditions": "1 hour after vs before insulin", "experimental": "For drawing blood, the animals were fasted after insulin administration. The blood thus taken was centrifuged and the glucose level was measured from the obtained plasma by the hexokinase method (glucose measurement kit). For evaluation, the percentage (%) of decrease in the glucose level of the test compound and insulin concomitant use group and insulin administration group one hour later relative to before insulin administration is shown."}, "female ob/ob mice [1]": {"tested_on": "female ob/ob mice", "experiment": "Effect of concomitant use with glibenclamide on hypoglycemic activity", "type": "in vivo", "conditions": "relative to control", "experimental": "(§1) To 10-week-old female ob/ob mice grouped according to glucose level were orally administered a 0.5% methyl cellulose suspension of the test compound {note: Example 4-2 (1 mg/kg)} (test compound-administered group), a 0.5% methyl cellulose suspension of glibenclamide (3 mg/kg) (glibenclamide-administered group), simultaneously both a 0.5% methyl cellulose suspension of the test compound and a 0.5% methyl cellulose suspension (glibenclamide 3 mg/kg) (test compound and glibenclamide concomitant use group), or a 0.5% methyl cellulose solution alone (control group).\nBlood was drawn under fasting condition, which condition was started simultaneously with the administration by means of removing the feed. […] The blood thus taken was centrifuged and the glucose level was measured from the obtained plasma by the hexokinase method (glucose kit). For evaluation, the percentage (%) of decrease in the glucose level of each group other than the control group relative to the control group is shown."}, "female ob/ob mice [2]": {"tested_on": "female ob/ob mice", "experiment": "Effect of concomitant use with metformin hydrochloride on hypoglycemic activity", "type": "in vivo", "conditions": "relative to control", "experimental": "as §1, with “metformin chloride (30” for “glibenclamide (3”, “(metformin-administered” for “(glibenclamide-administered”, “(metformin chloride 30” for “(glibenclamide 3”, “metformin” for “glibenclamide”, “group). The ob/ob mice were fasted for 3 hours before administration.” for “group).”\n(§2) Blood was drawn under fasting condition, which condition was started simultaneously with the administration by means of removing the feed. The blood was drawn under anesthesia from the orbital vein 3 and 5 hours after the administration. The blood thus taken was centrifuged and the glucose level was measured from the obtained plasma by the hexokinase method (glucose kit). For evaluation, the percentage (%) of decrease in the glucose level of each group other than the control group relative to the control group is shown."}, "female ob/ob mice [3]": {"tested_on": "female ob/ob mice", "experiment": "Effect of concomitant use with voglibose on hypoglycemic activity (sucrose loading)", "type": "in vivo", "conditions": "after sucrose loading 2 g/kg, relative to control", "experimental": "as §1, with “9-week-old” for “10-week-old”, “voglibose (0.3” for “glibenclamide (3”, “(voglibose-administered” for “(glibenclamide-administered”, “(voglibose 0.3” for “(glibenclamide 3”, “voglibose” for “glibenclamide”, “group). One hour later, sucrose (2 g/5 mL/kg) was loaded.” for “group).”\nas §2, with “loading” for “administration”, “1” for “3”, “2” for “5”, “sucrose loading.” for “administration.”"}, "male db/db mice [4]": {"tested_on": "male db/db mice", "experiment": "Effect of concomitant use with tolbutamide on hypoglycemic activity", "type": "in vivo", "conditions": "relative to control", "experimental": "as §1, with “male db/db” for “female ob/ob”, “4-5 (5” for “4-2 (1”, “tolbutamide (30” for “glibenclamide (3”, “(tolbutamide-administered” for “(glibenclamide-administered”, “(tolbutamide 30” for “(glibenclamide 3”, “tolbutamide” for “glibenclamide”\nas §2, with “vein” for “vein 3 and”, “(glucose measurement” for “(glucose”"}, "male db/db mice [5]": {"tested_on": "male db/db mice", "experiment": "Effect of concomitant use with nateglinide on hypoglycemic activity", "type": "in vivo", "conditions": "relative to control", "experimental": "as §1, with “male db/db” for “female ob/ob”, “4-5 (5” for “4-2 (1”, “nateglinide (30” for “glibenclamide (3”, “(nateglinide-administered” for “(glibenclamide-administered”, “(nateglinide 30” for “(glibenclamide 3”, “nateglinide” for “glibenclamide”\nas §2, with “2” for “3 and 5”, “(glucose measurement” for “(glucose”"}, "male db/db mice [6]": {"tested_on": "male db/db mice", "experiment": "Effect of concomitant use with pioglitazone hydrochloride on hypoglycemic activity", "type": "in vivo", "conditions": "relative to control; for blood glucose decreasing rate (%) Day 3: 3 hours after administration", "experimental": "To 8-week-old male db/db mice grouped according to full feed glucose level were orally administered a 0.5% methyl cellulose suspension of the test compound {note: Example 4-5 (10 mg/kg)} (test compound-administered group), a 0.5% methyl cellulose suspension of Pioglitazone hydrochloride (3 mg/kg) (Pioglitazone-administered group), simultaneously both a 0.5% methyl cellulose suspension of the test compound and a 0.5% methyl cellulose suspension (Pioglitazone hydrochloride 3 mg/kg) (test compound and Pioglitazone concomitant use group), or a 0.5% methyl cellulose solution alone (control group), once a day for 3 days.\nas §2, with “vein on day 1 of administration and” for “vein”, “3” for “3 and 5”, “administration on day 3.” for “administration.”"}, "[7]": {"conditions": "test compound 1 mg/kg + glibenclamide 3 mg/kg oral"}, "[8]": {"conditions": "test compound 1 mg/kg oral alone"}, "[9]": {"conditions": "test compound 1 mg/kg + metformin chloride 30 mg/kg oral, ob/ob mice"}, "[10]": {"conditions": "test compound 1 mg/kg oral alone, ob/ob mice fasted 3 hours before administration"}, "[11]": {"conditions": "test compound 1 mg/kg + voglibose 0.3 mg/kg oral"}, "[12]": {"conditions": "test compound 5 mg/kg oral alone"}, "[13]": {"conditions": "test compound 10 mg/kg + Pioglitazone hydrochloride 3 mg/kg oral once a day"}, "[14]": {"conditions": "test compound 10 mg/kg oral once a day alone"}, "[15]": {"conditions": "Pioglitazone hydrochloride 3 mg/kg oral once a day alone"}},
  "note": "Counter-ions that a name gives are not always drawn.",
  "data": [
    {"smiles": "CCCC(CCC)c1ccc(CN(C)c2ccc(-c3csc(CN(CC(=O)[O-])Cc4ccccc4)n3)cc2)cc1.[Na+]", "note": "[Example 3-40]", "values": [
      {"measurement": "blood glucose decreasing rate (%) Day of start of administration", "setting": "male SD rats; test compound 30 mg/kg oral once a day + insulin 0.6 U/kg s.c. 3 hours later", "result": 43, "unit": "%"},
      {"measurement": "blood glucose decreasing rate (%) Day 8", "setting": "male SD rats; test compound 30 mg/kg oral once a day for 8 days + insulin 0.6 U/kg s.c.", "result": 36, "unit": "%"}
    ]},
    {"smiles": "CCCC(CCC)c1ccc(OCc2ccc(-c3csc(COc4cncc(C(=O)O)c4)c3)cc2)cc1", "note": "[Example 4-2, 5-(4-{4-[4-(1-Propylbutyl)phenoxymethyl]phenyl}thiophen-2-ylmethoxy)nicotinic acid]", "values": [
      {"measurement": "blood glucose decreasing rate (%) 3 hours later", "setting": "female ob/ob mice [1]; [7]", "result": 64, "unit": "%"},
      {"measurement": "blood glucose decreasing rate (%) 15 hours later", "setting": "female ob/ob mice [1]; [7]", "result": 60, "unit": "%"},
      {"measurement": "blood glucose decreasing rate (%) 3 hours later", "setting": "female ob/ob mice [1]; [8]", "result": 48, "unit": "%"},
      {"measurement": "blood glucose decreasing rate (%) 15 hours later", "setting": "female ob/ob mice [1]; [8]", "result": 20, "unit": "%"},
      {"measurement": "blood glucose decreasing rate (%) 3 hours later", "setting": "female ob/ob mice [2]; [9]", "result": 40, "unit": "%"},
      {"measurement": "blood glucose decreasing rate (%) 5 hours later", "setting": "female ob/ob mice [2]; [9]", "result": 51, "unit": "%"},
      {"measurement": "blood glucose decreasing rate (%) 3 hours later", "setting": "female ob/ob mice [2]; [10]", "result": 19, "unit": "%"},
      {"measurement": "blood glucose decreasing rate (%) 5 hours later", "setting": "female ob/ob mice [2]; [10]", "result": 20, "unit": "%"},
      {"measurement": "blood glucose decreasing rate (%) 1 hour later", "setting": "female ob/ob mice [3]; [11]", "result": 49, "unit": "%"},
      {"measurement": "blood glucose decreasing rate (%) 2 hours later", "setting": "female ob/ob mice [3]; [11]", "result": 54, "unit": "%"},
      {"measurement": "blood glucose decreasing rate (%) 1 hour later", "setting": "female ob/ob mice [3]; [8]", "result": 32, "unit": "%"},
      {"measurement": "blood glucose decreasing rate (%) 2 hours later", "setting": "female ob/ob mice [3]; [8]", "result": 40, "unit": "%"}
    ]},
    {"smiles": "CCCC(CCC)c1ccc(OCc2ccc(-c3ccc(COc4cncc(C(=O)O)c4)s3)cc2)cc1", "note": "[Example 4-5]", "values": [
      {"measurement": "blood glucose decreasing rate (%) 5 hours later", "setting": "male db/db mice [4]; test compound 5 mg/kg + tolbutamide 30 mg/kg oral", "result": 30, "unit": "%"},
      {"measurement": "blood glucose decreasing rate (%) 5 hours later", "setting": "male db/db mice [4]; [12]", "result": 26, "unit": "%"},
      {"measurement": "blood glucose decreasing rate (%) 2 hours later", "setting": "male db/db mice [5]; test compound 5 mg/kg + nateglinide 30 mg/kg oral", "result": 19, "unit": "%"},
      {"measurement": "blood glucose decreasing rate (%) 2 hours later", "setting": "male db/db mice [5]; [12]", "result": 11, "unit": "%"},
      {"measurement": "blood glucose decreasing rate (%) Day 3", "setting": "male db/db mice [6]; [13]", "result": 48, "unit": "%"},
      {"measurement": "blood glucose decreasing rate (%) Day of start of administration", "setting": "male db/db mice [6]; [13]", "result": 30, "unit": "%"},
      {"measurement": "blood glucose decreasing rate (%) Day 3", "setting": "male db/db mice [6]; [14]", "result": 32, "unit": "%"},
      {"measurement": "blood glucose decreasing rate (%) Day of start of administration", "setting": "male db/db mice [6]; [14]", "result": 24, "unit": "%"},
      {"measurement": "melting point", "result": "153 to 155", "unit": "°C"}
    ]},
    {"smiles": "CC(C)[C@H]1CC[C@H](C(=O)N[C@H](Cc2ccccc2)C(=O)O)CC1", "note": "[Nateglinide, nateglinide, reference compound]", "values": [
      {"measurement": "blood glucose decreasing rate (%) 2 hours later", "setting": "male db/db mice [5]; nateglinide 30 mg/kg oral alone", "result": 5, "unit": "%"}
    ]},
    {"smiles": "CCc1ccc(CCOc2ccc(CC3SC(=O)NC3=O)cc2)nc1", "note": "(centres unmarked) [Pioglitazone, pioglitazone hydrochloride, reference compound]", "values": [
      {"measurement": "blood glucose decreasing rate (%) Day 3", "setting": "male db/db mice [6]; [15]", "result": 44, "unit": "%"},
      {"measurement": "blood glucose decreasing rate (%) Day of start of administration", "setting": "male db/db mice [6]; [15]", "result": 11, "unit": "%"}
    ]},
    {"smiles": "CCCCNC(=O)NS(=O)(=O)c1ccc(C)cc1", "note": "[Tolbutamide, tolbutamide, reference compound]", "values": [
      {"measurement": "blood glucose decreasing rate (%) 5 hours later", "setting": "male db/db mice [4]; tolbutamide 30 mg/kg oral alone", "result": 26, "unit": "%"}
    ]},
    {"smiles": "OCC(CO)N[C@H]1C[C@](O)(CO)[C@@H](O)[C@H](O)[C@H]1O", "note": "[Voglibose, voglibose, reference compound]", "values": [
      {"measurement": "blood glucose decreasing rate (%) 1 hour later", "setting": "female ob/ob mice [3]; voglibose 0.3 mg/kg oral alone", "result": 35, "unit": "%"},
      {"measurement": "blood glucose decreasing rate (%) 2 hours later", "setting": "female ob/ob mice [3]; voglibose 0.3 mg/kg oral alone", "result": 38, "unit": "%"}
    ]}
  ]
}
